# Where two headings read alike, the source gives them in different places.
# How the values were obtained:
# [1] = Plasma pharmacokinetics after a single oral (gavage) dose in fasted male Sprague-Dawley rats, LC-MS/MS; settings: for measurable plasma concentrations: after 2 mg/kg oral; for AUClast / T 1/2 (terminal half life): fasted male Sprague Dawley rats; for Concentration in plasma, Mean: fasted male Sprague-Dawley rats, n = 3/time point;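 as to all read-outs here: plasma from heparinized blood sampled up to 14 h post dose, three rats per timepoint, parameters by non-compartmental analysis of mean concentration-time data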
# Experimental: (§1) Serial blood samples were collected from three animals per group per timepoint prior to dosing and at 0.25, 0.5, 1, 2, 3 4, 6, 8, 10, 12, and 14-hours post dose.
# (§2) Animals were fasted overnight prior to dose administration. Water was provided ad libitum. Food was returned after the collection of the 4-hour samples.
# (§3) Doses (rounded to the nearest 0.001 mL) were calculated based on the pretreatment body weight (kg) and a dose volume of 10 mL/kg.
# (§4) Serial blood samples (˜300 μL) were collected from three animals per group per timepoint into tubes containing sodium heparin prior to dosing and at 0.25, 0.5, 1, 2, 3, 4, 6, 8, 10, 12, and 14-hours post dose. […] Blood samples were stored on wet ice until being processed for plasma via centrifugation (3500 g for 10 minutes at 5° C.) within 30 minutes of collection.
# (§5) The concentration-time data were analyzed to fit an extra-vascular (oral gavage) dosing plasma analysis model (200) using the software WinNonlin Phoenix version 6.3 (Pharsight).
# (§6) Half-lives are reported if the correlation for the regression line, as measured by r squared, is ≥0.9, when rounded.
# [2] = in vivo; settings: male, Sprague-Dawley, rat, plasma, po, 2 mg/kg
# Experimental: as §1, §2, §3, §4, §5, §6
# [3] = Brain concentrations and brain pharmacokinetics after a single oral (gavage) dose in fasted male Sprague-Dawley rats, LC-MS/MS; format: in vivo; settings: for measurable brain concentrations: after 2 mg/kg oral; for concentration at 1 h: 1 hour post dose; for concentration at 4 h: 4 hour post dose; for concentration at 14 h: 14 hour post dose
# Experimental: Water was provided ad libitum.
# Immediately after the 1, 4, 8 and 14-hour blood collections, three animals/group were euthanized and the brain was dissected out of each rat. The brains were rinsed with saline and dried, placed in pre-weighed conical tubes, and flash frozen in liquid nitrogen. Brain weights were calculated for each sample.
# [4] = in words, molecular weight corrected, oral 2 mg/kg, rats
# [5] = plasma, molecular weight corrected (caffeine values multiplied by 0.956), oral gavage 2 mg/kg, rats
# [6] = male, Sprague-Dawley, rat, brain, po, 2 mg/kg, oral gavage 2 mg/kg, fasted male Sprague-Dawley rats, n = 3/time point
# [7] = male, Sprague-Dawley, rat, brain, po, 2 mg/kg, brain, molecular weight corrected (caffeine values multiplied by 0.956), oral gavage 2 mg/kg, rats, read-out: AUClast,corr
# [8] = male, Sprague-Dawley, rat, brain, po, 2 mg/kg, brain, molecular weight corrected (caffeine values multiplied by 0.956), oral gavage 2 mg/kg, rats, read-out: Cmax,corr
# [9] = male, Sprague-Dawley, rat, brain, po, 2 mg/kg, brain, oral gavage 2 mg/kg, fasted male Sprague Dawley rats, read-out: AUClast
# [10] = male, Sprague-Dawley, rat, brain, po, 2 mg/kg, brain, oral gavage 2 mg/kg, fasted male Sprague Dawley rats, read-out: Cmax
# [11] = male, Sprague-Dawley, rat, brain, po, 2 mg/kg, oral dose 2 mg/kg, rats, read-out: AUClast in brain
# [12] = rat, brain/plasma, oral gavage 2 mg/kg, fasted male Sprague Dawley rats, read-out: Ratio Brain/Plasma Cmax
# [13] = rat, brain, oral gavage 2 mg/kg, fasted male Sprague Dawley rats
# [14] = rat, brain, oral gavage 2 mg/kg, fasted male Sprague Dawley rats, read-out: Ratio Brain/Plasma AUClast
SMILES,"measurable plasma concentrations ([1]; in words, rats)","AUCinf, corr [1, 5] [ng·h/mL]","AUClast, corr [1, 5] [ng·h/mL]","AUClast ([1]; plasma, oral gavage 2 mg/kg) [ng·h/mL]","T 1/2 (terminal half life) ([1]; plasma, oral gavage 2 mg/kg) [h]",AUC(0-inf) [2] [ng·h/mL],AUC(0-t) [2] [ng·h/mL],Cmax [2] [ng/mL],Tmax [2] [h],concentration at 0.25 h [2] [ng/mL],concentration at 0.5 h [2] [ng/mL],concentration at 1 h [2] [ng/mL],concentration at 2 h [2] [ng/mL],concentration at 3 h [2] [ng/mL],concentration at 4 h [2] [ng/mL],half-life [2] [h],"measurable brain concentrations ([3]; in words, rats)","concentration at 1 h [3, 6] [ng/g]","concentration at 4 h [3, 6] [ng/g]","concentration at 14 h [3, 6] [ng/g]",other results
"[2H]C([2H])([2H])n1c(=O)c2c(ncn2C([2H])([2H])[2H])n(C([2H])([2H])[2H])c1=O [Compound D9-Caffeine, D9-caffeine]",detected in all animals evaluated at each time point through 14 hours post dose,27000,22000,22000,5,27000,22000,2400,3,1720,1740,2090,2340,2360,2270,5,detected in all animals evaluated at each time point through 14 hours post dose,1540,1640,463,"plasma Cmax compared with caffeine [1, 4]: similar; systemic (AUC) exposure in plasma compared with a corresponding dose of caffeine ([1]; in words, oral 2 mg/kg, rats): higher; half-life compared with a corresponding dose of caffeine ([1]; in words, plasma, oral 2 mg/kg, rats): longer; Cmax, corr [1, 5]: 2400 ng/mL; total systemic exposure (AUCinf) higher than caffeine ([1]; plasma, molecular weight corrected, oral 2 mg/kg, rats): approximately 77%; concentration at 6 h [2]: 1790 ng/mL; concentration at 8 h [2]: 1550 ng/mL; concentration at 12 h [2]: 897 ng/mL; concentration at 14 h [2]: 682 ng/mL; total brain exposure (AUClast,corr) higher than caffeine ([3]; brain, molecular weight corrected, oral 2 mg/kg, rats): approximately 52%; brain Cmax compared with caffeine [3, 4]: slightly lower; AUC exposure in brain compared with a corresponding dose of caffeine ([3]; in words, oral 2 mg/kg, rats): higher; AUC(0-t) [3, 7]: 16000 ng·h/mL; Cmax [3, 8]: 1600 ng/mL; AUC(0-t) [3, 9]: 16000 ng·h/mL; Cmax [3, 10]: 1600 ng/mL; AUC(0-t) [3, 11]: 16000 ng·h/mL; Kp [3, 12]: 0.67; Tmax [3, 13]: 4 h; Kp [3, 14]: 0.73"
"Cn1c(=O)c2c(ncn2C)n(C)c1=O [Caffeine, reference compound]",detected in all animals evaluated at each time point through 14 hours post dose,15296,15296,16000,1.9,16000,16000,2600,1,2420,2410,2640,2070,2030,1820,1.9,detected in all animals evaluated at each time point through 14 hours post dose,1910,1210,62.6,"Concentration in plasma, Mean ([1]; 8 hour post dose, oral gavage 2 mg/kg): 849 ng/mL; Concentration in plasma, Mean ([1]; 10 hour post dose, oral gavage 2 mg/kg): 344 ng/mL; Concentration in plasma, Mean ([1]; 12 hour post dose, oral gavage 2 mg/kg): 171 ng/mL; Concentration in plasma, Mean ([1]; 14 hour post dose, oral gavage 2 mg/kg): 97.1 ng/mL; concentration at 8 h ([3]; male, Sprague-Dawley, rat, brain, po, 2 mg/kg, 8 hour post dose, oral gavage 2 mg/kg, fasted male Sprague-Dawley rats, n = 3/time point): 553 ng/g; AUC(0-t) [3, 7]: 10500 ng·h/mL; Cmax [3, 8]: 1820 ng/mL; AUC(0-t) [3, 9]: 11000 ng·h/mL; Cmax [3, 10]: 1900 ng/mL; AUC(0-t) [3, 11]: 11000 ng·h/mL; Kp [3, 12]: 0.73; AUC(0-inf) [3, 13]: 11000 ng·h/mL; Tmax [3, 13]: 1 h; Kp [3, 14]: 0.69"
